Experimental data: patent US9724347B2, “1-pyrazolyl-3-(4-((2-anilinopyrimidin-4-yl)oxy)napththalen-1-yl) ureas as P38 MAP knase inhibitors” (Respivert Ltd., priority 2011, dated 2017)

What was measured:
[1] = target: p38 MAPKα isoform (MAPK14) (Homo sapiens (Human), UniProt Q16539); assay: p38 MAPKα enzyme inhibition (FRET, Z-LYTE); type: biochemical
Description: The enzyme inhibitory activities of compounds disclosed herein were determined by FRET using synthetic peptides labelled with both donor and acceptor fluorophores (Z-LYTE, Invitrogen Ltd., Paisley, UK). The inhibitory activities of test compounds against the p38 MAPKα isoform (MAPK14: Invitrogen), were evaluated indirectly by determining the level of activation/phosphorylation of the down-stream molecule, MAPKAP-K2. […] The mixture was incubated for 1 hr at RT. Development reagent (protease, 5 μL) was added for 1 hr prior to detection in a fluorescence microplate reader (Varioskan® Flash, ThermoFisher Scientific). In all cases, the site-specific protease cleaves non-phosphorylated peptide only and eliminates the FRET signal. Phosphorylation levels of each reaction were calculated using the ratio of coumarin emission (donor) over fluorescein emission (acceptor), for which low ratios indicate high phosphorylation and high ratios indicate low phosphorylation levels.

p38MAPKγ (MAPK12) = p38MAPKγ (MAPK12) (Homo sapiens (Human), UniProt P53778); assay: p38 MAPKγ enzyme inhibition (FRET, Z-LYTE); type: biochemical
Description: The enzyme inhibitory activities of compounds disclosed herein were determined by FRET using synthetic peptides labelled with both donor and acceptor fluorophores (Z-LYTE, Invitrogen Ltd., Paisley, UK). […] Development reagent (protease, 5 μL) was added for 1 hr prior to detection in a fluorescence microplate reader (Varioskan® Flash, Thermo Scientific). In all cases, the site-specific protease cleaves non-phosphorylated peptide only and eliminates the FRET signal. Phosphorylation levels of each reaction were calculated using the ratio of coumarin emission (donor) over fluorescein emission (acceptor), for which low ratios indicate high phosphorylation and high ratios indicate low phosphorylation levels.

GSK 3α enzyme isoform = GSK 3α enzyme isoform (Homo sapiens (Human), UniProt P49840); assay: GSK 3α enzyme inhibition (FRET, Z-LYTE); type: biochemical; conditions: read-out: IC50 Values for Enzyme Inhibition GSK3α
Description: The enzyme inhibitory activities of compounds disclosed herein were determined by FRET using synthetic peptides labelled with both donor and acceptor fluorophores (Z-LYTE, Invitrogen Ltd., Paisley, UK).
The inhibitory activities of test compounds against the GSK 3α enzyme isoform (Invitrogen), were evaluated by determining the level of activation/phosphorylation of the target peptide.
The GSK3-α protein (500 ng/mL, 2.5 μL) was mixed with the test compound (2.5 μL at either 4 μg/mL, 0.4 μg/mL, 0.04 μg/mL, or 0.004 μg/mL) for 2 hr at RT. The FRET peptide (8 μM, 2.5 μL), which is a phosphorylation target for GSK3α, and ATP (40 μM, 2.5 μL) were then added to the enzyme/compound mixture and the resulting mixture incubated for 1 hr. Development reagent (protease, 5 μL) was added for 1 hr prior to detection in a fluorescence microplate reader (Varioskan® Flash, ThermoFisher Scientific).
In all cases, the site-specific protease cleaves non-phosphorylated peptide only and eliminates the FRET signal. Phosphorylation levels of each reaction were calculated using the ratio of coumarin emission (donor) over fluorescein emission (acceptor), for which low ratios indicate high phosphorylation and high ratios indicate low phosphorylation levels.

[2] = system: ICAM-1 expression in BEAS2B cells; assay: Poly I:C-induced ICAM-1 expression in BEAS2B cells; type: cell-based, human; conditions: Homo sapiens, BEAS-2B, read-out: PolyIC/ICAM1 IC50 (BEAS2B)
Description: Poly I:C was used in these studies as a simple, RNA virus mimic. Poly I:C-Oligofectamine mixture (1 μg/mL Poly I:C, ±2% Oligofectamine, 25 μL; Invivogen Ltd., San Diego, Calif., and Invitrogen, Carlsbad, Calif., respectively) was transfected into BEAS2B cells (human bronchial epithelial cells, ATCC). Cells were pre-incubated with final concentrations of test compounds for 2 hr and the level of ICAM-1 expression on the cell surface was determined by cell-based ELISA. At a time point 18 hr after poly I:C transfection, cells were fixed with 4% formaldehyde in PBS (100 μL) and then endogenous peroxidase was quenched by the addition of washing buffer (100 μL, 0.05% Tween in PBS: PBS-Tween) containing 0.1% sodium azide and 1% hydrogen peroxide. Cells were washed with wash-buffer (3×200 μL). and after blocking the wells with 5% milk in PBS-Tween (100 μL) for 1 hr, the cells were incubated with anti-human ICAM-1 antibody (50 μL; Cell Signaling Technology, Danvers, Mass.) in 1% BSA PBS overnight at 4° C.
The cells were washed with PBS-Tween (3×200 μL) and incubated with the secondary antibody (100 μL; HRP-conjugated anti-rabbit IgG, Dako Ltd., Glostrup, Denmark). The cells were then incubated with of substrate (50 μL) for 2-20 min, followed by the addition of stop solution (50 μL, 1N H2SO4). The ICAM-1 signal was detected by reading […] the absorbance at 450 nm against a reference wavelength of 655 nm using a spectrophotometer. The cells were then washed with PBS-Tween (3×200 μL) and total cell numbers in each well were determined by reading absorbance at 595 nm after Crystal Violet staining (50 μL of a 2% solution in PBS) and elution by 1% SDS solution (100 μL) in distilled water. The measured OD 450-655 readings were corrected for cell number by dividing with the OD595 reading in each well. The inhibition of ICAM-1 expression was calculated at each concentration of test compound by comparison with vehicle control.

d-U937 cells = assay: Cell viability: MTT assay; type: cell-based, human; conditions: 1 μg/mL
Description: Differentiated U937 cells were pre-incubated with each test compound (final concentration 1 μg/mL or 10 μg/mL in 200 μL media indicated below) under two protocols: the first for 4 hr in 5% FCS RPMI1640 media and the second in 10% FCS RPMI1640 media for 24 h. The supernatant was replaced with new media (200 μL) and MTT stock solution (10 μL, 5 mg/mL) was added to each well. After incubation for 1 hr the media were removed, DMSO (200 μL) was added to each well and the plates were shaken lightly for 1 hr prior to reading the absorbance at 550 nm. The percentage loss of cell viability was calculated for each well relative to vehicle (0.5% DMSO) treatment. Consequently an apparent increase in cell viability for drug treatment relative to vehicle is tabulated as a negative percentage.

Sequence of p38MAPKγ (MAPK12) (P53778 whole entry): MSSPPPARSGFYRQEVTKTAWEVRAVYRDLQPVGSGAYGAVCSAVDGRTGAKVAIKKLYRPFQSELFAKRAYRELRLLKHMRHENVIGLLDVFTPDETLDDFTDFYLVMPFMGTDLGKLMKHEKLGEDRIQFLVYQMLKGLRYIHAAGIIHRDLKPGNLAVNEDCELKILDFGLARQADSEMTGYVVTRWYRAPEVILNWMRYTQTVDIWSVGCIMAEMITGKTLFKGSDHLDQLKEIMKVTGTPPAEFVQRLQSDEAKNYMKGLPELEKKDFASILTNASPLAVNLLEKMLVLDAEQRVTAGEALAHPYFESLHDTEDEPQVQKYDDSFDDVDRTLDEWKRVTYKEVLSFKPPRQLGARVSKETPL
Sequence of p38 MAPKα isoform (MAPK14) (Q16539 whole entry, canonical isoform): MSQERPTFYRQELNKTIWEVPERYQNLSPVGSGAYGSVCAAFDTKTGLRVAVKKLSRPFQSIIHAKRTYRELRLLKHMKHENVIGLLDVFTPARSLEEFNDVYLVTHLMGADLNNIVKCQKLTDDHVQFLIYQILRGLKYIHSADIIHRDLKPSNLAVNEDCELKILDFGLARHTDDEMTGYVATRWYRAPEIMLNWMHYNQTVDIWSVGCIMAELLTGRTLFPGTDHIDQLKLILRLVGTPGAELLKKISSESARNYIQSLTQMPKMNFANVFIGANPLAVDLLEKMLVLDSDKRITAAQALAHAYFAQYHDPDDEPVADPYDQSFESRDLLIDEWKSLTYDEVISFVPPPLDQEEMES
Sequence of GSK 3α enzyme isoform (P49840 whole entry, canonical isoform): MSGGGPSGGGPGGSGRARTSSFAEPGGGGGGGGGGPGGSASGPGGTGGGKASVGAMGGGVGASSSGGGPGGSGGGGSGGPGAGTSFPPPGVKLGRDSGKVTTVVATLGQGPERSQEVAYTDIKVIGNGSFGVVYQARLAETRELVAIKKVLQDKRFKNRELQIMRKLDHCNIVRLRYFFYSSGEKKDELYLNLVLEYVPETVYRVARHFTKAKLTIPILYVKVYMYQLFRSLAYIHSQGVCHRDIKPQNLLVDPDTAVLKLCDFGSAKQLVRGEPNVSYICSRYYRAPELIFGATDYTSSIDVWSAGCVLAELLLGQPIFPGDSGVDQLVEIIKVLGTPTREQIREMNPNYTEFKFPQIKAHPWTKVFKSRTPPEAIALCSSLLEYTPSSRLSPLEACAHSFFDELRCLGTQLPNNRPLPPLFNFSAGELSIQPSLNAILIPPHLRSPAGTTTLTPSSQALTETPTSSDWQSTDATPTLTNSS

SMILES | IC50 [1] | IC50 (p38MAPKγ (MAPK12)) | IC50 (GSK 3α enzyme isoform) | IC50 [2] | MTT Assay Cell viability at time point in d-U937 Cells (d-U937 cells; 4 h) | MTT Assay Cell viability at time point in d-U937 Cells (d-U937 cells; 24 h)
Cc1ccc(-n2nc(C(C)(C)C)cc2NC(=O)Nc2ccc(Oc3ccnc(Nc4ccccc4F)n3)c3ccccc23)cc1 [Example 4, 1-(3-(tert-butyl)-1-(p-tolyl)-1H-pyrazol-5-yl)-3-(4-((2-((2-fluorophenyl)amino)pyrimidin-4-yl)oxy)naphthalen-1-yl)urea] | 165 nM | 8.2 µM | > 16.6 µM | 144 nM | −ve (−ve and +ve indicate the value is below and above respectively, the no significant effect threshold defined as 30% inhibition at 1 μg/mL at the time point indicated) | −ve (−ve and +ve indicate the value is below and above respectively, the no significant effect threshold defined as 30% inhibition at 1 μg/mL at the time point indicated)
Cc1ccc(-n2nc(C(C)(C)C)cc2NC(=O)Nc2ccc(Oc3ccnc(Nc4cc(C)ccc4C)n3)c3ccccc23)cc1 [Example 10, 1-(3-(tert-butyl)-1-(p-tolyl)-1H-pyrazol-5-yl)-3-(4-((2-((2,5-dimethylphenyl)amino)pyrimidin-4-yl)oxy)naphthalen-1-yl)urea] | 195 nM | > 16.3 µM | > 16.3 µM | 43 nM | −ve (−ve and +ve indicate the value is below and above respectively, the no significant effect threshold defined as 30% inhibition at 1 μg/mL at the time point indicated) | −ve (−ve and +ve indicate the value is below and above respectively, the no significant effect threshold defined as 30% inhibition at 1 μg/mL at the time point indicated)
Cc1ccc(Nc2nccc(Oc3ccc(NC(=O)Nc4cc(C(C)(C)C)nn4-c4ccc(C)cc4)c4ccccc34)n2)cc1 [Example 11, 1-(3-(tert-butyl)-1-(p-tolyl)-1H-pyrazol-5-yl)-3-(4-((2-(p-tolylamino)pyrimidin-4-yl)oxy)naphthalen-1-yl)urea] | 356 nM | > 16.7 µM | > 16.7 µM | 11 nM | −ve (−ve and +ve indicate the value is below and above respectively, the no significant effect threshold defined as 30% inhibition at 1 μg/mL at the time point indicated) | −ve (−ve and +ve indicate the value is below and above respectively, the no significant effect threshold defined as 30% inhibition at 1 μg/mL at the time point indicated)
Cc1ccc(-n2nc(C(C)(C)C)cc2NC(=O)Nc2ccc(Oc3ccnc(Nc4cccc(C)c4)n3)c3ccccc23)cc1 [Example 12, 1-(3-(tert-butyl)-1-(p-tolyl)-lH-pyrazol-5-yl)-3-(4-((2-(m-tolylamino)pyrimidin-4-yl)oxy)naphthalen-1-yl)urea] | 169 nM | > 16.7 µM | > 16.7 µM | 2.7 nM | −ve (−ve and +ve indicate the value is below and above respectively, the no significant effect threshold defined as 30% inhibition at 1 μg/mL at the time point indicated) | −ve (−ve and +ve indicate the value is below and above respectively, the no significant effect threshold defined as 30% inhibition at 1 μg/mL at the time point indicated)
Cc1ccc(-n2nc(C(C)(C)C)cc2NC(=O)Nc2ccc(Oc3ccnc(Nc4cccc(Cl)c4)n3)c3ccccc23)cc1 [Example 13, 1-(3-(tert-butyl)-1-(p-tolyl)-1H-pyrazol-5-yl)-3-(4-((2-((3-chlorophenyl)amino)pyrimidin-4-yl)oxy)naphthalen-1-yl)urea] | 262 nM | > 16.2 µM | > 16.2 µM | 3 nM | −ve (−ve and +ve indicate the value is below and above respectively, the no significant effect threshold defined as 30% inhibition at 1 μg/mL at the time point indicated) | −ve (−ve and +ve indicate the value is below and above respectively, the no significant effect threshold defined as 30% inhibition at 1 μg/mL at the time point indicated)
COc1cccc(Nc2nccc(Oc3ccc(NC(=O)Nc4cc(C(C)(C)C)nn4-c4ccc(C)cc4)c4ccccc34)n2)c1 [Example 14, 1-(3-(tert-butyl)-1-(p-tolyl)-1H-pyrazol-5-yl)-3-(4-((2-((3-methoxyphenyl)amino)pyrimidin-4-yl)oxy)naphthalen-1-yl)urea] | 119 nM | > 16.3 µM | > 16.3 µM | 9.8 nM | −ve (−ve and +ve indicate the value is below and above respectively, the no significant effect threshold defined as 30% inhibition at 1 μg/mL at the time point indicated) | −ve (−ve and +ve indicate the value is below and above respectively, the no significant effect threshold defined as 30% inhibition at 1 μg/mL at the time point indicated)
Cc1ccc(-n2nc(C(C)(C)C)cc2NC(=O)Nc2ccc(Oc3ccnc(Nc4cccc(F)c4)n3)c3ccccc23)cc1 [Example 15, 1-(3-(tert-butyl)-1-(p-tolyl)-1H-pyrazol-5-yl)-3-(4-((2-((3-fluorophenyl)amino)pyrimidin-4-yl)oxy)naphthalen-1-yl)urea] | 155 nM | > 16.6 µM | > 16.6 µM | 9.3 nM | −ve (−ve and +ve indicate the value is below and above respectively, the no significant effect threshold defined as 30% inhibition at 1 μg/mL at the time point indicated) | −ve (−ve and +ve indicate the value is below and above respectively, the no significant effect threshold defined as 30% inhibition at 1 μg/mL at the time point indicated)
